Measured values taken from patent US5462952A, “Fenamate 1,3,4-thiadiazoles and 1,3,4-oxadiazoles as antiinflammatory agents” (Warner-Lambert Company, priority 1993, dated 1995).
pIC50: −log10 of the molar value. Structures can show the parent of a compound that is named as a salt. Where two headings read alike, the source gives them in different places.

Tests used:
5-Lipoxygenase = target: T1, 5-Lipoxygenase (Rattus norvegicus, UniProt P12527); assay: ARBL whole cell 5-lipoxygenase assay (LTB4 formation in RBL-1 cells, A23187-stimulated); assay type: cell-based; parameters: key to ARBL, activity at the screening dose: Not active at the screening dose; settings: for pIC50: Table 2; for inhibition at 10 µM: Table 2, @ 10 μM; for ARBL, activity at the screening dose: Table 2, screening dose, class symbol N
T1 construct: host or cells: RBL-1 (rat basophilic leukemia)
T1 sequence (P12527 1-673): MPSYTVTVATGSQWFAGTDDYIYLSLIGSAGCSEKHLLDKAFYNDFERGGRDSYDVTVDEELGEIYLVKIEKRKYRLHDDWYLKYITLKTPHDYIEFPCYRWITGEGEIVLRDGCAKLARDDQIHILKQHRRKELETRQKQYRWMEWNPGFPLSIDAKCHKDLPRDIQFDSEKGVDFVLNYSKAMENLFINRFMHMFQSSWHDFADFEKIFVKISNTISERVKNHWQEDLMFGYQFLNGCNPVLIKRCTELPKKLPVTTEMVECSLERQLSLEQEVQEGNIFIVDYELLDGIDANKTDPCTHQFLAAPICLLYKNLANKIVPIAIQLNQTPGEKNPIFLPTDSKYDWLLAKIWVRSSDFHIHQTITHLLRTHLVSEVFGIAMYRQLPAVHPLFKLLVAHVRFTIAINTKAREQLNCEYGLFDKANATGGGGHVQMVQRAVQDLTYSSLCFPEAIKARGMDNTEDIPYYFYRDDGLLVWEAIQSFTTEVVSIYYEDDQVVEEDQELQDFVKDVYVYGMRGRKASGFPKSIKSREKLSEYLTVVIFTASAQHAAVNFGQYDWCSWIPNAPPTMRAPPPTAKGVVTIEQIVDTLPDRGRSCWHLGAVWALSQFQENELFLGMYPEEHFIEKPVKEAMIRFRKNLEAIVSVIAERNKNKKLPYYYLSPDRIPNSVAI
Description: (§1) The rat basophilic leukemia cell line (RBL-1) was obtained from the American Type Culture Collection (Rockville, Md.).
(§2) Radioimmunoassay (RIA) kits of LTB4 and PGF2α were obtained from Amersham (Arlington Heights, Ill.) and Seragen (Boston, Mass.), respectively.
(§3) RBL-1 cells are grown in suspension culture in Eagle's minimum essential medium supplemented with 12% fetal bovine serum at 37° C. in an incubator supplied with air-5% carbon dioxide. Cells are harvested by centrifugation. They are washed with cold phosphate buffered saline pH 7.4 (PBS; NaCl, 7.1 g; Na2 HPO4, 1.15 g; KH2 PO4, 0.2 g; and KCl, 0.2 g/l). Cells are finally suspended in PBS containing 1.0 mM calcium at a density of 2×10^6 cells/ml. Cells are incubated with and without test agent (in DMSO) (1% DMSO is without effect on arachidonic acid metabolism) for ten minutes at room temperature. Calcium ionophore A23187 (5 μM) is added and cells are incubated for seven minutes at 37° C. The reaction is stopped by chilling the tubes on ice for ten minutes. Cells are separated by centrifugation and the supernatant is stored at -20°. Aliquots (100 μl) are analyzed for LTB4 and PGF2α using radioimmunoassay kits as provided by the supplier.
(§4) Tables 1 and 2 contain biochemical data obtained from the whole cell assay described above as IC50 s which are calculated as the concentration of test compound causing 50% inhibition of LTB4 or PGF2α formation. Table 2 also provides the dose at which 40% of swelling is inhibited in the CFE-2 assay.

Cyclooxygenase = assay: ARBC whole cell cyclooxygenase assay (PGF2α formation in RBL-1 cells, A23187-stimulated); assay type: cell-based, rat; parameters: key to ARBC, activity at the screening dose: Not active at the screening dose; settings: for ARBC, activity at the screening dose: Table 2, screening dose
Description: as §1, §2, §3, §4

[1] = test system: Carrageenan-Induced Rat Foot Paw Edema; assay: Carrageenan-Induced Rat Foot Paw Edema-2 (CFE-2) Assay; assay type: in vivo; settings: 5 h, Table 2, dosed one hour before carrageenan, edema at five hours, probit analysis, read-out: CFE, ID40 (dose at which 40% inhibition of swelling occurs)
Description: Carrageenan solution (1% w/v) is prepared by dissolving 100 mg carrageenan (Marine Colloidal Div., Springfield, N.J.) in 10 ml of sterile saline (0.9%) solution (Travenol). The solution is vortexed for 30 to 45 minutes. Animals are dosed with compound one hour before carrageenan challenge. Foot paw edema is induced by injecting 0.10 ml of the 1% carrageenan subcutaneously into the plantar portion of the right hind paw of each rat under light anesthesia. Initial foot paw volume is measured immediately following carrageenan challenge using mercury plethysmography (Buxco Electronics). Edema is measured five hours after carrageenan. The difference between the 5-hour and the initial paw volume is expressed as delta edema. The delta edema for each test group of animals is used to calculate the percent inhibition of edema achieved by the compound at the test dose compared with the vehicle control group. The data in Table 1 (the dose at which swelling is inhibited by the noted) is calculated by probit analysis for the dose at which 40% inhibition occurs.
as §4

[2] = read-out: ARBL, % inhibition at given concentration
[3] = Table 1, 16 μM, read-out: ARBL, % inhibition of LTB4 at 16 μM

With Cc1ccc(Cl)c(Nc2ccccc2-c2nnc(S(C)(=O)=O)o2)c1Cl [Example 20, 2,6-Dichloro-3-methyl-N-[2-[5-(methylsulfonyl)-1,3,4-oxadiazol-2-yl]phenyl]benzenamine] the pIC50 (5-Lipoxygenase) was 5.20 and the pIC50 (Cyclooxygenase; Table 2) was 5.52.
With Cc1ccc(Cl)c(Nc2ccccc2-c2nnc(N)o2)c1Cl [Example 17, 5-[2-[[2,6-Dichloro-3-methylphenyl]amino]phenyl]-1,3,4-oxadiazol-2-amine] the inhibition at 10 µM (5-Lipoxygenase; [2]) was 45% and the “ARBC, activity at the screening dose” value (Cyclooxygenase; class symbol N) was “N”.
With C[S+]([O-])c1nnc(-c2ccccc2Nc2cccc(C(F)(F)F)c2)s1 (stereo not shown) [Example 31] the inhibition at 10 µM (5-Lipoxygenase; [2]) was 100% and the “ARBC, % inhibition at given concentration” value (Cyclooxygenase; Table 2, @ 10 μM) was 51%.
FC(F)(F)c1cccc(Nc2ccccc2-c2n[nH]c(=S)s2)c1 [Example 12, 5-[2-[(3-Trifluoromethylphenyl)amino]phenyl]-1,3,4-thiadiazole-2(3H)-thione] was tested, and the pIC50 (5-Lipoxygenase) was 6.06, the pIC50 (Cyclooxygenase; Table 2) was 6.07 and the ED40 [1] was 4.7 mg/kg.
N=C(N)Nc1nnc(-c2ccccc2Nc2cccc(C(F)(F)F)c2)o1 [Example 27, 5-[2-[[3-(Trifluoromethyl)phenyl]amino]phenyl]-1,3,4-oxadiazol-2-yl-guanidine hydrochloride] was tested, and the inhibition at 10 µM (5-Lipoxygenase; [2]) was 100% and the “ARBC, activity at the screening dose” value (Cyclooxygenase; class symbol N) was “N”.
For Cc1cccc(Nc2ccccc2-c2n[nH]c(=O)o2)c1C [Example 8, 5-[2-[(2,3-Dimethylphenyl)amino]phenyl]-1,3,4-oxadiazol-2(3H)-one], the “ARBL, activity at the screening dose” value (5-Lipoxygenase) was “N” and the “ARBC, activity at the screening dose” value (Cyclooxygenase; class symbol N) was “N”.
Work on N#CNc1nnc(-c2ccccc2Nc2cccc(C(F)(F)F)c2)o1 [Example 26, 5-[2-[[3-(Trifluoromethyl)phenyl]amino]phenyl]-1,3,4-oxadiazol-2-yl-cyanamide] yielded a pIC50 (Cyclooxygenase; Table 2) of 5.98.
For Nc1nnc(-c2ccccc2Nc2cccc(C(F)(F)F)c2)o1 [Example 16, 5-[2-[[3-(Trifluoromethyl)phenyl]amino]phenyl]-1,3,4-oxadiazol-2-amine], the pIC50 (5-Lipoxygenase) was 6.17 and the pIC50 (Cyclooxygenase; Table 2) was 5.15.
Molecule Cc1ccc(Cl)c(Nc2ccccc2-c2nnc([S+](C)[O-])o2)c1Cl (stereo not shown) [Example 21, 2,6-Dichloro-3-methyl-N-[2-[5-(methylsulfinyl)-1,3,4-oxadiazol-2-yl]phenyl]benzenamine] has a pIC50 (5-Lipoxygenase) of 6.04 and a pIC50 (Cyclooxygenase; Table 2) of 5.75.
Cc1ccc(Cl)c(Nc2ccccc2-c2nnc(NC#N)o2)c1Cl [Example 23, 5-[2-[(2,6-Dichloro-3-methylphenyl)amino]phenyl]-1,3,4-oxadiazol-2-yl-cyanamide] showed a pIC50 (5-Lipoxygenase) of 6.05 and a pIC50 (Cyclooxygenase; Table 2) of 6.60.
For Cc1ccc(Cl)c(Nc2ccccc2-c2nnc(N)s2)c1Cl [Example 4, 5-[2-[(2,6-Dichloro-3-methylphenyl)amino]phenyl]-1,3,4-thiadiazol-2-amine], the pIC50 (5-Lipoxygenase) was 6.22, the pIC50 (Cyclooxygenase; Table 1, footnote c) was 5.21 and the pIC50 (Cyclooxygenase; Table 2) was 5.21.
Nc1nnc(-c2ccccc2Nc2cccc(C(F)(F)F)c2)s1 [Example 10, 5-[2-[(3-Trifluoromethylphenyl)amino]phenyl]-1,3,4-thiadiazol-2-amine] showed a pIC50 (5-Lipoxygenase) of 6.16 and a pIC50 (Cyclooxygenase; Table 2) of 4.96.
With CSc1nnc(-c2ccccc2Nc2c(Cl)ccc(C)c2Cl)s1 [Example 28, 2,6-Dichloro-3-methyl-N-[2-[5-(methylthio)-1,3,4-thiadiazol-2-yl]phenyl]benzenamine] the “ARBL, activity at the screening dose” value (5-Lipoxygenase) was “N” and the “ARBC, % inhibition at given concentration” value (Cyclooxygenase; Table 2, @ 10 μM) was 60%.
For Cc1ccc(Cl)c(Nc2ccccc2-c2n[nH]c(=S)o2)c1Cl [Example 2, 5-[2-[(2,6-Dichloro-3-methylphenyl)amino]phenyl]-1,3,4-oxadiazol-2(3H)-thione], the inhibition at 16 µM (5-Lipoxygenase; [3]) was 97%, the pIC50 (5-Lipoxygenase) was 6.13 and the pIC50 (Cyclooxygenase; Table 1, footnote c) was 6.15. It also gave a pIC50 (Cyclooxygenase; Table 2) of 6.15.
For S=c1[nH]nc(Cc2ccccc2Nc2c(Cl)cccc2Cl)o1 [Example 7, 5-[[2-[(2,6-Dichlorophenyl)amino]phenyl]methyl]-1,3,4-oxadiazol-2(3H)-thion], the inhibition at 16 µM (5-Lipoxygenase; [3]) was 88% and the “ARBC, % inhibition of PGF2α at 16 μM” value (Cyclooxygenase; Table 1, 16 μM, class symbol N) was “N (Less than 40% inhibition at 16 μM)”.
With Cc1ccc(Cl)c(Nc2ccccc2-c2n[nH]c(=O)o2)c1Cl [Example 1] the “ARBL, activity at the screening dose” value (5-Lipoxygenase) was “N” and the “ARBC, activity at the screening dose” value (Cyclooxygenase; class symbol N) was “N”.
For CS(=O)(=O)c1nnc(-c2ccccc2Nc2cccc(C(F)(F)F)c2)o1 [Example 25, N-[2-[5-(Methylsulfonyl)-1,3,4-oxadiazol-2-yl]phenyl]-3-trifluoromethyl benzenamine], the “ARBL, activity at the screening dose” value (5-Lipoxygenase) was “N” and the “ARBC, % inhibition at given concentration” value (Cyclooxygenase; Table 2, @ 10 μM) was 48%.
With Cc1ccc(Cl)c(Nc2ccccc2-c2nnc(NC(=N)N)o2)c1Cl [Example 22, 5-[2-[(2,6-dichloro-3-methylphenyl)amino]phenyl]-1,3,4-oxadiazol-2-yl-guanidine monohydrochloride] the inhibition at 10 µM (5-Lipoxygenase; [2]) was 46% and the “ARBC, activity at the screening dose” value (Cyclooxygenase; class symbol N) was “N”.
For FC(F)(F)c1cccc(Nc2ccccc2-c2n[nH]c(=S)o2)c1 [Example 6, 5-[2-[[3-(Trifluoromethyl)phenyl]amino]phenyl]-1,3,4-oxadiazol-2(3H)-thione], the pIC50 (5-Lipoxygenase) was 6.11, the pIC50 (Cyclooxygenase; Table 2) was 6.57 and the ED40 [1] was 8.5 mg/kg.
For CSc1nnc(-c2ccccc2Nc2cccc(C(F)(F)F)c2)s1 [Example 30, 3-Trifluoromethyl-N-[2-[5-(methylthio)-1,3,4-thiadiazol-2-yl]phenyl]benzenamine], the inhibition at 10 µM (5-Lipoxygenase; [2]) was 66% and the “ARBC, % inhibition at given concentration” value (Cyclooxygenase; Table 2, @ 10 μM) was 44%.
In the case of Cc1cccc(Nc2ccccc2-c2n[nH]c(=S)o2)c1C [Example 9, 5-[2-[(2,3-Dimethylphenyl)amino]phenyl]-1,3,4-oxadiazole-2(3H)-thione], the pIC50 (5-Lipoxygenase) was 6.00.
With CSc1nnc(-c2ccccc2Nc2c(Cl)ccc(C)c2Cl)o1 [Example 19, 2,6-Dichloro-3-methyl-N-[2-[5-(methylthio)-1,3,4-oxadiazol-2-yl]phenyl]benzenamine] the “ARBL, activity at the screening dose” value (5-Lipoxygenase) was “N” and the “ARBC, % inhibition at given concentration” value (Cyclooxygenase; Table 2, @ 10 μM) was 55%.
In the case of Cc1ccc(Cl)c(Nc2ccccc2-c2nnc([S+](C)[O-])s2)c1Cl (stereo not shown) [Example 29, 2,6-Dichloro-3-methyl-N-[2-[5-(methylsulfinyl)-1,3,4-thiadiazol-2-yl]phenyl]benzenamine], the pIC50 (5-Lipoxygenase) was 5.48 and the pIC50 (Cyclooxygenase; Table 2) was 5.07.
Cc1ccc(Cl)c(Nc2ccccc2-c2nnco2)c1Cl [Example 18, 2,6-Dichloro-3-methyl-N-[2-(1,3,4-oxadiazol-2-yl)phenyl]benzenamine] was tested, and the “ARBL, activity at the screening dose” value (5-Lipoxygenase) was “N” and the “ARBC, activity at the screening dose” value (Cyclooxygenase; class symbol N) was “N”.
With Cc1ccc(Cl)c(Nc2ccccc2-c2n[nH]c(=S)s2)c1Cl [Example 5, 5-[2-[(2,6-Dichloro-3-methylphenyl)amino]phenyl]-1,3,4-thiadiazol-2(3H)-thione] the inhibition at 16 µM (5-Lipoxygenase; Table 2, @ 16 μM, read-out: ARBL, % inhibition at given concentration) was 100% and the “ARBC, % inhibition at given concentration” value (Cyclooxygenase; Table 2, @ 16 μM) was 47%.
With CSc1nnc(-c2ccccc2Nc2cccc(C(F)(F)F)c2)o1 [Example 24, N-[2-[5-(Methylthio)-1,3,4-oxadiazol-2-yl]phenyl]-3-trifluoromethyl benzenamine] the “ARBL, activity at the screening dose” value (5-Lipoxygenase) was “N” and the “ARBC, % inhibition at given concentration” value (Cyclooxygenase; Table 2, @ 10 μM) was 44%.
